Experimental data published in ChEMBL document CHEMBL3046287, “Azoxystrobin resistance of French Mycosphaerella graminicola strains assessed by four in vitro bioassays and by screening of G143A substitution” (Crop Prot, 2010).
Converted amounts (≈) assume the structure as drawn.

Key:
Type in all cases: functional, organism-based
Zymoseptoria tritici [1] = experiment: Antifungal activity against azoxystrobin-sensitive Zymoseptoria tritici T0470 carrying cytochrome-b G143 allele assessed as inhibition of spore germination after 2 days at 18 degC by spotting on PDA medium assay; details: T0470, 48 h
Zymoseptoria tritici [2] = experiment: Antifungal activity against azoxystrobin-sensitive Zymoseptoria tritici T0365 carrying cytochrome-b G143 allele assessed as fungal colony perpendicular diameter changes after 10 days at 18 degC by spotting on PDA medium assay; details: T0365, 240 h
Zymoseptoria tritici [3] = experiment: Antifungal activity against azoxystrobin-sensitive Zymoseptoria tritici T0210 carrying cytochrome-b G143 allele assessed as fungal growth inhibition after 6 days at 20 degC by microplate without alamar blue assay; details: T0210, 144 h
Zymoseptoria tritici [4] = experiment: Antifungal activity against azoxystrobin-sensitive Zymoseptoria tritici T0213 carrying cytochrome-b G143 allele assessed as fungal colony perpendicular diameter changes after 10 days at 18 degC by spotting on PDA medium assay; details: T0213, 240 h
Zymoseptoria tritici [5] = experiment: Antifungal activity against azoxystrobin-resistant Zymoseptoria tritici T0451 carrying cytochrome-b A143 allele assessed as inhibition of spore germination after 2 days at 18 degC by spotting on PDA medium assay; details: T0451, 48 h
Zymoseptoria tritici [6] = experiment: Antifungal activity against azoxystrobin-sensitive Zymoseptoria tritici T0148 carrying cytochrome-b G143 allele assessed as fungal colony perpendicular diameter changes after 10 days at 18 degC by spotting on PDA medium assay; details: T0148, 240 h
Zymoseptoria tritici [7] = experiment: Antifungal activity against azoxystrobin-resistant Zymoseptoria tritici T0485 carrying cytochrome-b A143 allele assessed as fungal colony perpendicular diameter changes after 10 days at 18 degC by spotting on PDA medium assay; details: T0485, 240 h
Zymoseptoria tritici [8] = experiment: Antifungal activity against azoxystrobin-sensitive Zymoseptoria tritici T0473 carrying cytochrome-b G143 allele assessed as fungal growth inhibition after 6 days at 20 degC by microplate without alamar blue assay; details: T0473, 144 h
Zymoseptoria tritici [9] = experiment: Antifungal activity against azoxystrobin-resistant Zymoseptoria tritici T0345 carrying cytochrome-b A143 allele assessed as inhibition of spore germination after 2 days at 18 degC by spotting on PDA medium assay; details: T0345, 48 h
Zymoseptoria tritici [10] = experiment: Antifungal activity against azoxystrobin-sensitive Zymoseptoria tritici T0209 carrying cytochrome-b G143 allele assessed as fungal growth inhibition after 6 days at 20 degC by microplate without alamar blue assay; details: T0209, 144 h
Zymoseptoria tritici [11] = experiment: Antifungal activity against azoxystrobin-sensitive Zymoseptoria tritici T0464 carrying cytochrome-b G143 allele assessed as inhibition of spore germination after 2 days at 18 degC by spotting on PDA medium assay; details: T0464, 48 h
Zymoseptoria tritici [12] = experiment: Antifungal activity against azoxystrobin-sensitive Zymoseptoria tritici T0473 carrying cytochrome-b G143 allele assessed as fungal colony perpendicular diameter changes after 10 days at 18 degC by spotting on PDA medium assay; details: T0473, 240 h
Zymoseptoria tritici [13] = experiment: Antifungal activity against azoxystrobin-sensitive Zymoseptoria tritici T0470 carrying cytochrome-b G143 allele assessed as fungal colony perpendicular diameter changes after 10 days at 18 degC by spotting on PDA medium assay; details: T0470, 240 h
Zymoseptoria tritici [14] = experiment: Antifungal activity against azoxystrobin-resistant Zymoseptoria tritici T0251 carrying cytochrome-b A143 allele assessed as fungal growth inhibition after 6 days at 20 degC by microplate without alamar blue assay; details: T0251, 144 h
Zymoseptoria tritici [15] = experiment: Antifungal activity against azoxystrobin-resistant Zymoseptoria tritici T0290 carrying cytochrome-b A143 allele assessed as inhibition of spore germination after 2 days at 18 degC by spotting on PDA medium assay; details: T0290, 48 h
Zymoseptoria tritici [16] = experiment: Antifungal activity against azoxystrobin-sensitive Zymoseptoria tritici T021 carrying cytochrome-b G143 allele assessed as fungal growth inhibition after 6 days at 20 degC by microplate without alamar blue assay; details: T021, 144 h
Zymoseptoria tritici [17] = experiment: Antifungal activity against azoxystrobin-sensitive Zymoseptoria tritici T0210 carrying cytochrome-b G143 allele assessed as fungal colony perpendicular diameter changes after 10 days at 18 degC by spotting on PDA medium assay; details: T0210, 240 h
Zymoseptoria tritici [18] = experiment: Antifungal activity against azoxystrobin-resistant Zymoseptoria tritici T0293 carrying cytochrome-b A143 allele assessed as fungal growth inhibition after 6 days at 20 degC by microplate without alamar blue assay; details: T0293, 144 h
Zymoseptoria tritici [19] = experiment: Antifungal activity against azoxystrobin-sensitive Zymoseptoria tritici T0213 carrying cytochrome-b G143 allele assessed as inhibition of spore germination after 2 days at 18 degC by spotting on PDA medium assay; details: T0213, 48 h
Zymoseptoria tritici [20] = experiment: Antifungal activity against azoxystrobin-sensitive Zymoseptoria tritici T0460 carrying cytochrome-b G143 allele assessed as fungal growth inhibition after 6 days at 20 degC by microplate without alamar blue assay; details: T0460, 144 h
Zymoseptoria tritici [21] = experiment: Antifungal activity against azoxystrobin-sensitive Zymoseptoria tritici T0468 carrying cytochrome-b G143 allele assessed as fungal colony perpendicular diameter changes after 10 days at 18 degC by spotting on PDA medium assay; details: T0468, 240 h
Zymoseptoria tritici [22] = experiment: Antifungal activity against azoxystrobin-resistant Zymoseptoria tritici T0345 carrying cytochrome-b A143 allele assessed as fungal growth inhibition after 6 days at 20 degC by microplate without alamar blue assay; details: T0345, 144 h
Zymoseptoria tritici [23] = experiment: Antifungal activity against azoxystrobin-resistant Zymoseptoria tritici T032 carrying cytochrome-b A143 allele assessed as fungal colony perpendicular diameter changes after 10 days at 18 degC by spotting on PDA medium assay; details: T032, 240 h
Zymoseptoria tritici [24] = experiment: Antifungal activity against azoxystrobin-resistant Zymoseptoria tritici T049 carrying cytochrome-b A143 allele assessed as fungal colony perpendicular diameter changes after 10 days at 18 degC by spotting on PDA medium assay; details: T049, 240 h
Zymoseptoria tritici [25] = experiment: Antifungal activity against azoxystrobin-sensitive Zymoseptoria tritici T0466 carrying cytochrome-b G143 allele assessed as fungal growth inhibition after 6 days at 20 degC by microplate without alamar blue assay; details: T0466, 144 h
Zymoseptoria tritici [26] = experiment: Antifungal activity against azoxystrobin-sensitive Zymoseptoria tritici T0384 carrying cytochrome-b G143 allele assessed as fungal growth inhibition after 6 days at 20 degC by microplate without alamar blue assay; details: T0384, 144 h
Zymoseptoria tritici [27] = experiment: Antifungal activity against azoxystrobin-resistant Zymoseptoria tritici T0414 carrying cytochrome-b A143 allele assessed as fungal growth inhibition after 6 days at 20 degC by microplate without alamar blue assay; details: T0414, 144 h
Zymoseptoria tritici [28] = experiment: Antifungal activity against azoxystrobin-resistant Zymoseptoria tritici T0262 carrying cytochrome-b A143 allele assessed as fungal growth inhibition after 6 days at 20 degC by microplate without alamar blue assay; details: T0262, 144 h
Zymoseptoria tritici [29] = experiment: Antifungal activity against azoxystrobin-sensitive Zymoseptoria tritici T0470 carrying cytochrome-b G143 allele assessed as fungal growth inhibition after 6 days at 20 degC by microplate without alamar blue assay; details: T0470, 144 h
Zymoseptoria tritici [30] = experiment: Antifungal activity against azoxystrobin-sensitive Zymoseptoria tritici T083 carrying cytochrome-b G143 allele assessed as fungal growth inhibition after 6 days at 20 degC by microplate without alamar blue assay; details: T083, 144 h

## CO/C=C(/C(=O)OC)c1ccccc1Oc1cc(Oc2ccccc2C#N)ncn1 [AZOXYSTROBIN]
Zymoseptoria tritici [1]
  IC50: 0.02 µg/mL (≈ 0.0496 µM)
Zymoseptoria tritici [2]
  IC50: 0.11 µg/mL (≈ 0.273 µM)
Zymoseptoria tritici [3]
  IC50: 0.03 µg/mL (≈ 0.0744 µM)
Zymoseptoria tritici [4]
  IC50: 0.11 µg/mL (≈ 0.273 µM)
Zymoseptoria tritici [5]
  IC50: 29.6 µg/mL (≈ 73.3 µM)
Zymoseptoria tritici [6]
  IC50: 0.06 µg/mL (≈ 0.149 µM)
Zymoseptoria tritici [7]
  IC50: 10.6 µg/mL (≈ 26.2 µM)
Zymoseptoria tritici [8]
  IC50: 0.01 µg/mL (≈ 0.0248 µM)
Zymoseptoria tritici [9]
  IC50: 12.6 µg/mL (≈ 31.3 µM)
Zymoseptoria tritici [10]
  IC50: 0.01 µg/mL (≈ 0.0248 µM)
Zymoseptoria tritici [11]
  IC50: 0.22 µg/mL (≈ 0.545 µM)
Zymoseptoria tritici [12]
  IC50: 0.13 µg/mL (≈ 0.322 µM)
Zymoseptoria tritici [13]
  IC50: 0.06 µg/mL (≈ 0.149 µM)
Zymoseptoria tritici [14]
  IC50: > 100 µg/mL
Zymoseptoria tritici [15]
  IC50: 20.1 µg/mL (≈ 49.8 µM)
Zymoseptoria tritici [16]
  IC50: 0.22 µg/mL (≈ 0.545 µM)
Zymoseptoria tritici [17]
  IC50: 0.06 µg/mL (≈ 0.149 µM)
Zymoseptoria tritici [18]
  IC50: > 100 µg/mL
Zymoseptoria tritici [19]
  IC50: 0.16 µg/mL (≈ 0.397 µM)
Zymoseptoria tritici [20]
  IC50: 0.03 µg/mL (≈ 0.0744 µM)
Zymoseptoria tritici [21]
  IC50: 0.23 µg/mL (≈ 0.57 µM)
Zymoseptoria tritici [22]
  IC50: > 100 µg/mL
Zymoseptoria tritici [23]
  IC50: 37.8 µg/mL (≈ 93.8 µM)
Zymoseptoria tritici [24]
  IC50: 19.4 µg/mL (≈ 48.2 µM)
Zymoseptoria tritici [25]
  IC50: < 0.01 µg/mL
Zymoseptoria tritici [26]
  IC50: 0.06 µg/mL (≈ 0.149 µM)
Zymoseptoria tritici [27]
  IC50: > 100 µg/mL
Zymoseptoria tritici [28]
  IC50: 11.7 µg/mL (≈ 28.9 µM)
Zymoseptoria tritici [29]
  IC50: < 0.01 µg/mL
Zymoseptoria tritici [30]
  IC50: 0.5 µg/mL (≈ 1.24 µM)
